Laboratory results as given in PMC6979384, “Characterization of the plant homeodomain (PHD) reader family for their histone tail interactions” (Epigenetics & Chromatin, 2020).

Tests used:
Assay in all cases: Histone peptide microarray
Assay type in all cases: binding, human
PHF2 = conditions: each array performed twice, total n = 4; for Array Heatmap signal (histone peptide microarray): GST-tagged PHF2, sheet Array Heatmap
Method in brief: (§1)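 Using an optimized microarray protocol, purified GST-tagged PHD fingers were incubated at 0.5 μM on 293 histone peptides with single or multiple modifications, and array signal was recorded as the average of 4 replicates.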

TRIM66 (PB) = conditions: each array performed twice, total n = 4; for Array Heatmap signal (histone peptide microarray): GST-tagged TRIM66 (PB = PHD + Bromodomain), sheet Array Heatmap
Method in brief: as §1

MORC3 (CW) = conditions: each array performed twice, total n = 4; for Array Heatmap signal (histone peptide microarray): GST-tagged MORC3 (CW = CW-type Zn-finger), sheet Array Heatmap
Method in brief: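 GST-tagged PHD readers, 0.5 μM, probed on a microarray of 293 synthetic histone peptides carrying single or combinatorial PTMs (optimized Petell protocol). Signals are averaged over 4 replicates and expressed as relative binding.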

RAG2 = conditions: each array performed twice, total n = 4; for Array Heatmap signal (histone peptide microarray): GST-tagged RAG2, sheet Array Heatmap
Method in brief: as §1

CHD5 (PPCC) = conditions: each array performed twice, total n = 4; for Array Heatmap signal (histone peptide microarray): GST-tagged CHD5 (PPCC = Dual PHD + Dual Chromodomain), sheet Array Heatmap
Method in brief: as §1

BAZ2B = conditions: each array performed twice, total n = 4; for Array Heatmap signal (histone peptide microarray): GST-tagged BAZ2B, sheet Array Heatmap
Method in brief: as §1

ING1 = conditions: each array performed twice, total n = 4; for Array Heatmap signal (histone peptide microarray): GST-tagged ING1, sheet Array Heatmap
Method in brief: as §1

ING2 = conditions: each array performed twice, total n = 4; for Array Heatmap signal (histone peptide microarray): GST-tagged ING2, sheet Array Heatmap
Method in brief: as §1

PHRF1 (RP) = conditions: each array performed twice, total n = 4; for Array Heatmap signal (histone peptide microarray): GST-tagged PHRF1 (RP), sheet Array Heatmap
Method in brief: as §1

AIRE (PP) = conditions: each array performed twice, total n = 4; for Array Heatmap signal (histone peptide microarray): GST-tagged AIRE (PP), sheet Array Heatmap
Method in brief: as §1

PHF8 = conditions: each array performed twice, total n = 4; for Array Heatmap signal (histone peptide microarray): GST-tagged PHF8, sheet Array Heatmap
Method in brief: as §1

DIDO1 = conditions: each array performed twice, total n = 4; for Array Heatmap signal (histone peptide microarray): GST-tagged DIDO1, sheet Array Heatmap
Method in brief: as §1

CHD5 (PCC) = conditions: each array performed twice, total n = 4; for Array Heatmap signal (histone peptide microarray): GST-tagged CHD5 (PCC = PHD + Dual Chromodomain), sheet Array Heatmap
Method in brief: as §1

ING3 = conditions: each array performed twice, total n = 4; for Array Heatmap signal (histone peptide microarray): GST-tagged ING3, sheet Array Heatmap
Method in brief: as §1

PHF13 = conditions: each array performed twice, total n = 4; for Array Heatmap signal (histone peptide microarray): GST-tagged PHF13, sheet Array Heatmap
Method in brief: as §1

CHD4 (PPCC) = conditions: each array performed twice, total n = 4; for Array Heatmap signal (histone peptide microarray): GST-tagged CHD4 (PPCC = Dual PHD + Dual Chromodomain), sheet Array Heatmap
Method in brief: as §1

MLL5 = conditions: each array performed twice, total n = 4; for Array Heatmap signal (histone peptide microarray): GST-tagged MLL5, sheet Array Heatmap
Method in brief: as §1

DPF2 (PPC2W2) = conditions: each array performed twice, total n = 4; for Array Heatmap signal (histone peptide microarray): GST-tagged DPF2 (PPC2W2 = Dual PHD + C2W2-type Zn-finger), sheet Array Heatmap
Method in brief: as §1

KDM5B (3) = conditions: each array performed twice, total n = 4; for Array Heatmap signal (histone peptide microarray): GST-tagged KDM5B (3), sheet Array Heatmap
Method in brief: as §1

SP140L = conditions: each array performed twice, total n = 4; for Array Heatmap signal (histone peptide microarray): GST-tagged SP140L, sheet Array Heatmap
Method in brief: as §1

KDM5B (1) = conditions: each array performed twice, total n = 4; for Array Heatmap signal (histone peptide microarray): GST-tagged KDM5B (1), sheet Array Heatmap
Method in brief: as §1

KDM5A (1) = conditions: each array performed twice, total n = 4; for Array Heatmap signal (histone peptide microarray): GST-tagged KDM5A (1), sheet Array Heatmap
Method in brief: as §1

BPTF (PB) = conditions: each array performed twice, total n = 4; for Array Heatmap signal (histone peptide microarray): GST-tagged BPTF (PB = PHD + Bromodomain), sheet Array Heatmap
Method in brief: as §1

TAF3 = conditions: each array performed twice, total n = 4; for Array Heatmap signal (histone peptide microarray): GST-tagged TAF3, sheet Array Heatmap
Method in brief: as §1

KDM4C (TTP) = conditions: each array performed twice, total n = 4; for Array Heatmap signal (histone peptide microarray): GST-tagged KDM4C (TTP = Tandem Tudor domain + PHD), sheet Array Heatmap
Method in brief: as §1

KDM7A = conditions: each array performed twice, total n = 4; for Array Heatmap signal (histone peptide microarray): GST-tagged KDM7A, sheet Array Heatmap
Method in brief: as §1

ING5 = conditions: each array performed twice, total n = 4; for Array Heatmap signal (histone peptide microarray): GST-tagged ING5, sheet Array Heatmap
Method in brief: as §1

PHF23 = conditions: each array performed twice, total n = 4; for Array Heatmap signal (histone peptide microarray): GST-tagged PHF23, sheet Array Heatmap
Method in brief: as §1

ING4 = conditions: each array performed twice, total n = 4; for Array Heatmap signal (histone peptide microarray): GST-tagged ING4, sheet Array Heatmap
Method in brief: as §1

PHF21A = conditions: each array performed twice, total n = 4; for Array Heatmap signal (histone peptide microarray): GST-tagged PHF21A, sheet Array Heatmap
Method in brief: as §1

KDM5A (3) = conditions: each array performed twice, total n = 4; for Array Heatmap signal (histone peptide microarray): GST-tagged KDM5A (3), sheet Array Heatmap
Method in brief: as §1

Substance: H3K4ac + K18ac: H3 1-20
- Array Heatmap signal (histone peptide microarray) (PHF2): 0.5195
- Array Heatmap signal (histone peptide microarray) (TRIM66 (PB)): 0.6289
- Array Heatmap signal (histone peptide microarray) (MORC3 (CW)): 0.4359
- Array Heatmap signal (histone peptide microarray) (RAG2): 0.291
- Array Heatmap signal (histone peptide microarray) (CHD5 (PPCC)): 0.5589
- Array Heatmap signal (histone peptide microarray) (BAZ2B): 0.4765
- Array Heatmap signal (histone peptide microarray) (ING1): 0.5001
- Array Heatmap signal (histone peptide microarray) (ING2): 0.6077
- Array Heatmap signal (histone peptide microarray) (PHRF1 (RP)): 0.5224
- Array Heatmap signal (histone peptide microarray) (AIRE (PP)): 0.4624
- Array Heatmap signal (histone peptide microarray) (PHF8): 0.356
- Array Heatmap signal (histone peptide microarray) (DIDO1): 0.6662
- Array Heatmap signal (histone peptide microarray) (CHD5 (PCC)): 0.8291
- Array Heatmap signal (histone peptide microarray) (ING3): 0.5109
- Array Heatmap signal (histone peptide microarray) (PHF13): 0.6219
- Array Heatmap signal (histone peptide microarray) (CHD4 (PPCC)): 0.5623
- Array Heatmap signal (histone peptide microarray) (MLL5): 0.5346
- Array Heatmap signal (histone peptide microarray) (DPF2 (PPC2W2)): 0.6503
- Array Heatmap signal (histone peptide microarray) (KDM5B (3)): 0.551
- Array Heatmap signal (histone peptide microarray) (SP140L): 0.3275
- Array Heatmap signal (histone peptide microarray) (KDM5B (1)): 0.6733
- Array Heatmap signal (histone peptide microarray) (KDM5A (1)): 0.4894
- Array Heatmap signal (histone peptide microarray) (BPTF (PB)): 0.3724
- Array Heatmap signal (histone peptide microarray) (TAF3): 0.2831
- Array Heatmap signal (histone peptide microarray) (KDM4C (TTP)): 0.5036
- Array Heatmap signal (histone peptide microarray) (KDM7A): 0.4179
- Array Heatmap signal (histone peptide microarray) (ING5): 0.347
- Array Heatmap signal (histone peptide microarray) (PHF23): 0.5594
- Array Heatmap signal (histone peptide microarray) (ING4): 0.455
- Array Heatmap signal (histone peptide microarray) (PHF21A): 0.4736
- Array Heatmap signal (histone peptide microarray) (KDM5A (3)): 0.4876

Substance: H3K4ac: H3 1-20 [Peptide H3K4ac]
- Array Heatmap signal (histone peptide microarray) (PHF2): 0.603
- Array Heatmap signal (histone peptide microarray) (TRIM66 (PB)): 0.5857
- Array Heatmap signal (histone peptide microarray) (MORC3 (CW)): 0.3459
- Array Heatmap signal (histone peptide microarray) (RAG2): 0.2316
- Array Heatmap signal (histone peptide microarray) (CHD5 (PPCC)): 0.5057
- Array Heatmap signal (histone peptide microarray) (BAZ2B): 0.4282
- Array Heatmap signal (histone peptide microarray) (ING1): 0.5138
- Array Heatmap signal (histone peptide microarray) (ING2): 0.6074
- Array Heatmap signal (histone peptide microarray) (PHRF1 (RP)): 0.4419
- Array Heatmap signal (histone peptide microarray) (AIRE (PP)): 0.3833
- Array Heatmap signal (histone peptide microarray) (PHF8): 0.3449
- Array Heatmap signal (histone peptide microarray) (DIDO1): 0.6919
- Array Heatmap signal (histone peptide microarray) (CHD5 (PCC)): 0.7194
- Array Heatmap signal (histone peptide microarray) (ING3): 0.4516
- Array Heatmap signal (histone peptide microarray) (PHF13): 0.5951
- Array Heatmap signal (histone peptide microarray) (CHD4 (PPCC)): 0.511
- Array Heatmap signal (histone peptide microarray) (MLL5): 0.5593
- Array Heatmap signal (histone peptide microarray) (DPF2 (PPC2W2)): 0.663
- Array Heatmap signal (histone peptide microarray) (KDM5B (3)): 0.4727
- Array Heatmap signal (histone peptide microarray) (SP140L): 0.3065
- Array Heatmap signal (histone peptide microarray) (KDM5B (1)): 0.5705
- Array Heatmap signal (histone peptide microarray) (KDM5A (1)): 0.429
- Array Heatmap signal (histone peptide microarray) (BPTF (PB)): 0.3314
- Array Heatmap signal (histone peptide microarray) (TAF3): 0.248
- Array Heatmap signal (histone peptide microarray) (KDM4C (TTP)): 0.4265
- Array Heatmap signal (histone peptide microarray) (KDM7A): 0.3036
- Array Heatmap signal (histone peptide microarray) (ING5): 0.3289
- Array Heatmap signal (histone peptide microarray) (PHF23): 0.5477
- Array Heatmap signal (histone peptide microarray) (ING4): 0.4245
- Array Heatmap signal (histone peptide microarray) (PHF21A): 0.424
- Array Heatmap signal (histone peptide microarray) (KDM5A (3)): 0.4174

Substance: H3K4me1 (1-21): H3 1-21
- Array Heatmap value (peptide array signal) (PHF2; PHF2, sheet "Array Heatmap"): 0.5317
- Array Heatmap value (peptide array signal) (TRIM66 (PB); TRIM66 (PB), sheet "Array Heatmap"): 0.5876
- Array Heatmap value (peptide array signal) (MORC3 (CW); MORC3 (CW), sheet "Array Heatmap"): 0.4815
- Array Heatmap value (peptide array signal) (RAG2; RAG2, sheet "Array Heatmap"): 0.2554
- Array Heatmap value (peptide array signal) (CHD5 (PPCC); CHD5 (PPCC), sheet "Array Heatmap"): 0.5364
- Array Heatmap value (peptide array signal) (BAZ2B; BAZ2B, sheet "Array Heatmap"): 0.4634
- Array Heatmap value (peptide array signal) (ING1; ING1, sheet "Array Heatmap"): 0.559
- Array Heatmap value (peptide array signal) (ING2; ING2, sheet "Array Heatmap"): 0.622
- Array Heatmap value (peptide array signal) (PHRF1 (RP); PHRF1 (RP), sheet "Array Heatmap"): 0.5109
- Array Heatmap value (peptide array signal) (AIRE (PP); AIRE (PP), sheet "Array Heatmap"): 0.4291
- Array Heatmap value (peptide array signal) (PHF8; PHF8, sheet "Array Heatmap"): 0.3966
- Array Heatmap value (peptide array signal) (DIDO1; DIDO1, sheet "Array Heatmap"): 0.6834
- Array Heatmap value (peptide array signal) (CHD5 (PCC); CHD5 (PCC), sheet "Array Heatmap"): 0.76
- Array Heatmap value (peptide array signal) (ING3; ING3, sheet "Array Heatmap"): 0.4698
- Array Heatmap value (peptide array signal) (PHF13; PHF13, sheet "Array Heatmap"): 0.6202
- Array Heatmap value (peptide array signal) (CHD4 (PPCC); CHD4 (PPCC), sheet "Array Heatmap"): 0.5532
- Array Heatmap value (peptide array signal) (MLL5; MLL5, sheet "Array Heatmap"): 0.5781
- Array Heatmap value (peptide array signal) (DPF2 (PPC2W2); DPF2 (PPC2W2), sheet "Array Heatmap"): 0.6848
- Array Heatmap value (peptide array signal) (KDM5B (3); KDM5B (3), sheet "Array Heatmap"): 0.4879
- Array Heatmap value (peptide array signal) (SP140L; SP140L, sheet "Array Heatmap"): 0.3636
- Array Heatmap value (peptide array signal) (KDM5B (1); KDM5B (1), sheet "Array Heatmap"): 0.658
- Array Heatmap value (peptide array signal) (KDM5A (1); KDM5A (1), sheet "Array Heatmap"): 0.4646
- Array Heatmap value (peptide array signal) (BPTF (PB); BPTF (PB), sheet "Array Heatmap"): 0.3509
- Array Heatmap value (peptide array signal) (TAF3; TAF3, sheet "Array Heatmap"): 0.2643
- Array Heatmap value (peptide array signal) (KDM4C (TTP); KDM4C (TTP), sheet "Array Heatmap"): 0.468
- Array Heatmap value (peptide array signal) (KDM7A; KDM7A, sheet "Array Heatmap"): 0.3293
- Array Heatmap value (peptide array signal) (ING5; ING5, sheet "Array Heatmap"): 0.355
- Array Heatmap value (peptide array signal) (PHF23; PHF23, sheet "Array Heatmap"): 0.5596
- Array Heatmap value (peptide array signal) (ING4; ING4, sheet "Array Heatmap"): 0.4485
- Array Heatmap value (peptide array signal) (PHF21A; PHF21A, sheet "Array Heatmap"): 0.4499
- Array Heatmap value (peptide array signal) (KDM5A (3); KDM5A (3), sheet "Array Heatmap"): 0.5345
